How the values were obtained:
Format in all cases: in vivo, Arabidopsis thaliana
[1] = test system: wild-type and dwf4 seedlings; assay: Auxin response of seedlings on vertically oriented agar plates with 2,4-D
Method: (§1) Gibberellic acid (GA) response was assayed on plants grown individually in 5.7-cm pots. Once inflorescences reached 1 to 2 mm in height, they were sprayed weekly with 1 mM GA3 (Sigma). Control plants were sprayed with water. One week after the third spraying, plants were collected, and the length of the main stem was measured between the top of the rosette and the base of the most distal pedicel; 13 to 18 plants of each line were measured per treatment. Auxin response was tested by growing seedlings for 10 days under 16 hr of light on vertically oriented agar plates containing various concentrations of 2,4-D (Gibco, Grand Island, N.Y.). Genetic interaction with the hy2 mutation was tested by growing seedlings under continuous light for 7 days. Brassinolide (BL) response was determined in liquid culture, as described by Clouse et al. (1993) supra, except that three or four seedlings were grown in each well of a 24-well culture plate for 7 days. Measurements were taken for 10 to 20 seedlings for each genotype and condition, under a dissection microscope fitted with an ocular micrometer.
Auxin can also stimulate cell elongation. This effect is especially visible in young seedlings (Klee and Estelle, supra). […] Higher concentrations of auxin were inhibitory for both wild-type and dwf4 seedlings, and lower concentrations had no effect. In view of the inhibition of root growth, it is clear that dwf4 is not auxin resistant; rather, its elongation response is compromised.

dwf4 seedlings = assay: Feeding of BR biosynthetic intermediates to dwf4 seedlings in liquid media (rescue, dose-response); conditions: for rescue of the light-grown dwf4 phenotype: liquid media; for response of dwf4 seedlings in dose-response experiment in the dark: dark-grown, 6-oxoCN 10^−8 to 3×10^−6 M, 6-deoxoCT high concentrations
Method: In view of the results described above, we hypothesized that DWF4 mediates one or more of several steroid hydroxylation steps in the BR biosynthetic pathway. To test this, dwf4 was grown on all of the available biosynthetic intermediates in the BR biosynthetic pathways and examined to ascertain which intermediates could rescue the dwarf phenotype. In addition to the intermediates belonging to the early C-6 oxidation and late C-6 oxidation pathways (Choi et al. (1997), supra), 22α-hydroxycampesterol (22-OHCR), 6α-hydroxycastasterone (6-OHCT) (Takatsuto et al. (1997) J. Chem. Res. (synop.) 11:418-419), and […] (S. Takatsuto, T. Watanabe, T. Noguchi, and S. Fujioka, unpublished data) were synthesized and tested.
Germinated seedlings were transferred to media supplemented with one of the intermediates or BL to pinpoint the step catalyzed by DWF4. […] In addition, the rescued seedlings were less green than the dwarfs. These experiments were conducted in liquid media. Feeding experiments performed in the dark yielded similar results.
However, on CT the overall morphology of dwf4 was essentially rescued to wild-type phenotype at 3×10^−7 M and higher, whereas with 6-deoxoCT, rescue occurred with as little as 10^−7 M and may have even been inhibitory at higher concentrations. Of particular interest is the more dramatic response of the epicotyls versus the smaller response of the hypocotyls to CT. This same phenomenon was true for seedlings treated with >10^−7 M 6-deoxoCT.
A higher concentration of CT for dark-grown seedlings, compared with light-grown seedlings, 3×10^−6 M (FIG. 5B), was required to convert the hypocotyl to a length similar to that of the wild type.

6-week-old dwf4 plants = assay: Treatment of soil-grown mature dwf4 plants with BR intermediates and BL (pedicel elongation); conditions: 10^−6 M, compared with CT and TE at 10^−5 M
Method: To determine whether the results of the seedling feeding experiments could be applicable to soil-grown mature plants, 6-week-old dwf4 plants were treated with BR intermediates and BL. Concentrations of applied intermediates were adjusted empirically to optimize responses. Consistent with the results obtained from the seedlings experiments, only 22α-hydroxylated compounds can rescue the dwf4 phenotype. The elongation response was only observed in the young tissues of the inflorescence, regardless of whether the BRs were applied locally or sprayed over the entire plant. In contrast to the striking elongation of the peduncles and pedicels, fertility was not restored by BR treatment. The sterility in dwf4 is hypothesized to be mechanical, which means that the filaments are shorter than the carpels such that the pollen is shed onto the ovary walls rather than onto the stigmatic surface. In fact, if dwf4 plants are hand pollinated using […], fertility increases.

[2] = test system: wild-type and dwf4 seedlings; assay: GA response of seedlings germinated on GA (hypocotyl elongation)
Method: The conditions used for plant growth were essentially as described previously (Feldmann (1991) Plant J. 1:71-82; Forsthoefel et al. (1992) Aust. J. Plant Physiol. 19:353-366), except that agar-solidified medium contained 0.5% sucrose. Seedlings up to 2 weeks of age ([…] of age for dark-growth experiments) were grown on 0.9% agar-solidified medium containing 1×Murashige and Skoog 1962 salts (Murashige, T., and Skoog, F. (1962) Physiol. Plant, 15:473-497) and 0.5% sucrose (w/v) and cold treated (4° C.) for 2 days in the dark before transfer to the light (24 hr light; 80 μmol M^−2 sec^−1); older plants were grown in potting soil. The plates were sealed with Parafilm (American National Can Co., Chicago, Ill.) for the entire experiment. For nucleic acid extraction, genetic analysis, and other experiments in which mature plants were required, seeds were sown on Metromix 350 (Grace Sierra, Milpitas, Calif.) presoaked with distilled water. The pots were covered with plastic wrap and cold treated (4° C.) for two days before transfer to a growth chamber (16:8, light [240 μmol m^−2 sec^−1]:dark; 22 and 21° C., respectively, and 75 to 90% humidity). The plastic wrap was removed 5 days after germination, and the pots were subirrigated in distilled water as required. Germination of seeds for dark growth experiments was induced by overnight exposure of the seeds to light immediately after removing the plates from incubation at 4° C. The dwf4-1 and dwf4-2 mutations were in the Arabidopsis thaliana ecotype Wassilewskija (Ws-2) background; the dwf4-3 and dwf4-4 mutations were in the Enkheim (En-2) background.
Of the endogenous (hormonal) signals that might be deficient in dwarf plants, an obvious candidate is GA, because gibberellin-deficient mutants are shorter in stature than are the wild-type plants (Koommeef and Van der Veen, supra). Our results, however, indicate that dwf4 is not defective in the synthesis of gibberellins. […] Similar results were obtained when soil-grown plants were sprayed with 1 mM GA once inflorescences first became visible: dwf4 inflorescence stems elongated by only 28% above the untreated controls, whereas those of the wild type elongated by 45% above the untreated controls. Mutants that owe their reduced stature to decreased levels of endogenous gibberellins can be fully rescued by added hormone (Koornneef and Van der Veen, supra; Talon et al., supra). In addition, dwf4 seeds germinate in the absence of exogenously supplied GA.

[3] = test system: wild-type and dwf4 plants; assay: GA response of soil-grown plants sprayed with GA (inflorescence stem length)
Method: as §1
Of the endogenous (hormonal) signals that might be deficient in dwarf plants, an obvious candidate is GA, because gibberellin-deficient mutants are shorter in stature than are the wild-type plants (Koommeef and Van der Veen, supra). […]

DWF4 promoter (D4GL) = assay: DWF4-promoter:GUS (D4GL) activity in seedlings supplied with hormone
From the text: Two promoter constructs were used for the DWF4-promoter:GUS(D4G) analysis. For promoter fusions, polymerase chain reaction (PCR) products spanning 1.1 kb DNA upstream of the translation initiation site were amplified using primers D4XLINIT (5′-[…]-3′) (SEQ ID NO:16) and a T7 primer (5′[…]-3′) (SEQ ID NO:17). For template for PCR, a DWF4 genomic clone subcloned into pBluescript SK-vector (Stratagene La Jolla, Calif.) was used as described herein. The PCR products were restricted with SalI and BamHI, and ligated into the same restriction site of a promoterless GUS vectors pBI101; this 1.1 kb promoter:GUS construct as named pD4GL. For the pD4GS construct, pD4GL was digested with HindIII, the small restriction fragment was removed, and the remaining vector with the partial promoter was self-ligated. The constructs were introduced into Agrobacterium strain GV3101 through electroporation.
For histochemical analysis of the D4GL plants, seeds were plated on M&S plates and grown in the dark and light. Seedlings were harvested at the designated dates and stained overnight using a substrate mixture (0.1 M NaPO4, pH 7, 10 mM EDTA, 0.5 mM K3Fe(CN)6, 0.5 mM K4FE(CN)6, 1 mM X-glucuronide, and 0.1% Triton X-100). Seedlings cleared with 90% ethanol were rehydrated before taking pictures using a Stemi SV11 dissecting microscope (Zeiss, N.Y.).
Since DWF4 is proposed to be a key enzyme in the BR biosynthetic pathway, DWF4 transcription could be regulated by an end-product feedback mechanism. To this end, D4GL was expressed in different genetic backgrounds including two BR deficient mutants, dwf7-1 and dwf8-1, and a BR-enriched line, AOD4. GUS activity was increased in dwf7-1 and dwf8-1 but decreased in AOD4 lines. DWF7 is a C-5 desaturase that acts in the sterol specific part of the pathway. D4GL activity in dwf7-1 was found in the same tissues as wild type but, dwf8-1 is defective in a BR biosynthetic step downstream of CPD. […]

wild-type seedlings = assay: Hypocotyl and root length of wild-type seedlings supplemented with epi-BL; conditions: light-grown wild type, 10^−6 M epi-BL, 12 days
Method: To compare the phenotypic effects resulting form the endogenous and exogenous addition of BRs, the length of roots and hypocotyls of 16 seedlings of dwf4, wild-type controls, wild-type plants supplemented with 10^−6 M epi-BL, and two independent AOD4 lines, grown for 12 days in the light or dark was measured. […] These characteristic responses of wild-type plants to epi-BL treatment were similar in two independent AOD4 lines. […] Inhibition of root growth was also obvious in the AOD4 lines. Furthermore the increased hypocotyl length and reduced root length were consistently observed in 15 independent transformants of tobacco (TOD4) harboring a pOD4 construct.

[4] = light-grown seedlings, dose-response

Compound: O=C(O)COc1ccc(Cl)cc1Cl [2,4-D]
- hypocotyl elongation ([1]; concentrations lower than 10^−8 M): no effect
- root growth ([1]; wild-type and dwf4 seedlings, 10 days, all concentrations assayed): inhibition of root growth was evident
- hypocotyl elongation ([1]; wild-type and dwf4 seedlings, concentrations higher than 10^−8 M): inhibitory

Compound: CC(C)[C@H](C)[C@@H](O)[C@H](O)[C@@H](C)[C@H]1CC[C@H]2[C@@H]3C[C@H](O)[C@H]4C[C@H](O)[C@H](O)C[C@]4(C)[C@H]3CC[C@]12C [6-OHCT, 6α-hydroxycastasterone]
- rescue of the light-grown dwf4 phenotype (dwf4 seedlings; light-grown seedlings): rescued

Compound: CC(C)[C@H](C)C[C@H](O)[C@@H](C)[C@H]1CC[C@H]2[C@@H]3CC[C@H]4C[C@@H](O)CC[C@]4(C)[C@H]3CC[C@]12C [6-deoxoCT, 6-deoxocathasterone]
- response of dwf4 seedlings in dose-response experiment in the dark (dwf4 seedlings): caused dramatic elongation but were less effective at rescuing dwf4 hypocotyls to wild-type phenotype
- concentration at which dwf4 overall morphology is rescued to wild-type phenotype (dwf4 seedlings; [4]): ≥ 10^−7 M
- concentrations at which seedlings displayed inhibition in hypocotyl and root elongation and cotyledon and leaf expansion (dwf4 seedlings; [4]): > 10^−7 M
- rescue of the light-grown dwf4 phenotype (dwf4 seedlings; light-grown seedlings): rescued
- sensitivity of dwf4 pedicels (6-week-old dwf4 plants): more sensitive

Compound: CC(C)[C@H](C)[C@@H](O)[C@H](O)[C@@H](C)[C@H]1CC[C@H]2[C@@H]3CC[C@H]4C[C@@H](O)CC[C@]4(C)[C@H]3CC[C@]12C [6-deoxoTE, 6-deoxoteasterone]
- sensitivity of dwf4 pedicels (6-week-old dwf4 plants): more sensitive

Compound: CC(C)[C@H](C)CC[C@@H](C)[C@H]1CC[C@H]2[C@@H]3CC(=O)[C@H]4C[C@@H](O)CC[C@]4(C)[C@H]3CC[C@]12C [6-oxoCN, 6-oxocampestanol]
- response of dwf4 seedlings in dose-response experiment in the dark (dwf4 seedlings): failed to respond
- response of dwf4 seedlings in dose-response test (dwf4 seedlings; light-grown, even at high concentrations (3×10^−6 M)): failed to respond

Compound: C=C1C[C@]23C[C@@]1(O)CC[C@H]2[C@@]12C=C[C@H](O)[C@@](C)(C(=O)O1)[C@H]2[C@@H]3C(=O)O [GA, Gibberellic acid]
- hypocotyl elongation response to GA ([2]; dwf4 seedlings germinated on 10^−5 M GA): responded minimally, if at all
- hypocotyl elongation response to GA ([2]; dwf4 seedlings, 10^−4 M compared with 10^−5 M GA): essentially saturated for elongation
- hypocotyl elongation response to GA ([2]; wild-type seedlings at 10^−4 M GA): elongated slightly more than at 10^−5 M
- hypocotyl elongation response to GA ([2]; wild-type seedlings germinated on 10^−5 M GA): demonstrated an elongation response
- inflorescence stem elongation above the untreated controls ([3]; dwf4, soil-grown plants sprayed with 1 mM GA): 28%
- inflorescence stem elongation above the untreated controls ([3]; wild type, soil-grown plants sprayed with 1 mM GA): 45%
- GUS staining in shoots and roots of D4GL plants (DWF4 promoter (D4GL); 10^−4 M GA3): did not display an increase in GUS staining
- hypocotyl length of D4GL plants (DWF4 promoter (D4GL); 10^−4 M GA3): longer than controls

Compound: CC(C)[C@@H](C)[C@@H](O)[C@H](O)[C@@H](C)[C@H]1CC[C@H]2[C@@H]3COC(=O)[C@H]4C[C@H](O)[C@H](O)C[C@]4(C)[C@H]3CC[C@]12C [epi-BL, 24-epibrassinolide]
- GUS activity of D4GL plants (DWF4 promoter (D4GL); 10^−6 M epi-BL, tissues normally stained in untreated controls): greatly reduced GUS activity
- hypocotyl length (wild-type seedlings): elongated hypocotyls
- root length (wild-type seedlings): shorter than untreated control plants

From patent US7935532B2, “DWF4 polynucleotides, polypeptides and uses thereof” (Arizona Board of Regents for and on behalf of Arizona State …, priority 1999, dated 2011)
